{"source": "paper PMC5218480", "about": "(PLoS ONE, 2017)", "test_system": "MV-4-11 cells", "assay": "Gene expression microarray analysis (Affymetrix PrimeView) and GSEA", "assay_type": "cell-based, human", "parameters": "RFU PODN (11730768_x_at) / Fold change /veh PODN (11730768_x_at) / RFU LINC00158 (11744669_a_at) / Fold change /veh LINC00158 (11744669_a_at) / RFU DUSP10 (11751237_a_at) / Fold change /veh DUSP10 (11751237_a_at) / RFU ID3 (11757404_x_at) / Fold change /veh ID3 (11757404_x_at) / RFU PLEKHG5 (11737974_s_at) / Fold change /veh PLEKHG5 (11737974_s_at) / RFU LRRC4B (11730491_at) / Fold change /veh LRRC4B (11730491_at) / RFU GIMAP4 (11747438_a_at) / Fold change /veh GIMAP4 (11747438_a_at) / RFU KRT8 (11758183_x_at) / Fold change /veh KRT8 (11758183_x_at) / RFU CNN1 (11734310_a_at) / Fold change /veh CNN1 (11734310_a_at) / RFU VPS37D (11726825_at) / Fold change /veh VPS37D (11726825_at) / RFU C10orf10 (11716522_x_at) / Fold change /veh C10orf10 (11716522_x_at) / RFU KIR2DL2 /// KIR2DL4 /// KIR2DL5A /// KIR2DL5B /// KIR2DS1 /// KIR2DS2 /// KIR2DS3 /// KIR2DS4 /// KIR3DL3 /// KIR3DL3 /// KIR3DS1 (11738374_at) / Fold change /veh KIR2DL2 /// KIR2DL4 /// KIR2DL5A /// KIR2DL5B /// KIR2DS1 /// KIR2DS2 /// KIR2DS3 /// KIR2DS4 /// KIR3DL3 /// KIR3DL3 /// KIR3DS1 (11738374_at) / RFU C1QL1 (11718748_at) / Fold change /veh C1QL1 (11718748_at) / RFU TMPRSS4 (11747572_a_at) / Fold change /veh TMPRSS4 (11747572_a_at) / RFU HAMP (11756126_x_at) / Fold change /veh HAMP (11756126_x_at) / RFU RNFT2 (11725882_a_at) / Fold change /veh RNFT2 (11725882_a_at) / RFU NR4A2 (11747474_a_at) / Fold change /veh NR4A2 (11747474_a_at) / RFU ABCC12 (11746883_a_at) / Fold change /veh ABCC12 (11746883_a_at) / RFU TMEM136 (11760407_x_at) / Fold change /veh TMEM136 (11760407_x_at) / RFU CLDN22 /// WWC2 (11732394_at) / Fold change /veh CLDN22 /// WWC2 (11732394_at) / RFU HLA-DPB1 (11760878_x_at) / Fold change /veh HLA-DPB1 (11760878_x_at) / RFU SPINT1 (11716480_a_at) / Fold change /veh SPINT1 (11716480_a_at) / RFU GAP43 (11754022_s_at) / Fold change /veh GAP43 (11754022_s_at) / RFU A4GNT (11735810_at) / Fold change /veh A4GNT (11735810_at) / RFU PRB3 (11715151_x_at) / Fold change /veh PRB3 (11715151_x_at) / RFU TUBB4B (11761932_at) / Fold change /veh TUBB4B (11761932_at) / RFU CAPN14 (11732068_a_at) / Fold change /veh CAPN14 (11732068_a_at) / RFU TMCC2 (11721928_a_at) / Fold change /veh TMCC2 (11721928_a_at) / RFU IRGQ (11745062_a_at) / Fold change /veh IRGQ (11745062_a_at) / RFU FAM174B (11720279_a_at) / Fold change /veh FAM174B (11720279_a_at) / RFU TMPRSS4 (11748680_a_at) / Fold change /veh TMPRSS4 (11748680_a_at) / RFU FAM212B (11763350_a_at) / Fold change /veh FAM212B (11763350_a_at) / RFU PLEKHG5 (11743358_a_at) / Fold change /veh PLEKHG5 (11743358_a_at) / RFU ZSCAN30 (11745921_a_at) / Fold change /veh ZSCAN30 (11745921_a_at) / RFU CMKLR1 (11741424_a_at) / Fold change /veh CMKLR1 (11741424_a_at) / RFU LOC101060620 /// MAPK8IP1 (11723275_at) / Fold change /veh LOC101060620 /// MAPK8IP1 (11723275_at) / RFU SPTSSB (11747773_x_at) / Fold change /veh SPTSSB (11747773_x_at) / RFU PRSS12 (11739890_at) / Fold change /veh PRSS12 (11739890_at) / RFU BIN1 (11741810_x_at) / Fold change /veh BIN1 (11741810_x_at) / RFU WNT11 (11732464_a_at) / Fold change /veh WNT11 (11732464_a_at) / RFU C10orf10 (11716521_a_at) / Fold change /veh C10orf10 (11716521_a_at) / RFU C5orf56 (11738089_at) / Fold change /veh C5orf56 (11738089_at) / RFU CYB561 (11721691_x_at) / Fold change /veh CYB561 (11721691_x_at) / RFU ANKRD19P (11752326_a_at) / Fold change /veh ANKRD19P (11752326_a_at) / RFU OR2T12 /// OR2T33 /// OR2T8 (11738714_s_at) / Fold change /veh OR2T12 /// OR2T33 /// OR2T8 (11738714_s_at) / RFU VCAN (11748164_a_at) / Fold change /veh VCAN (11748164_a_at) / RFU JSRP1 (11732532_at) / Fold change /veh JSRP1 (11732532_at) / RFU KRTAP10-11 (11738290_x_at) / Fold change /veh KRTAP10-11 (11738290_x_at) / RFU MYO3A (11730013_a_at) / Fold change /veh MYO3A (11730013_a_at) / RFU EBF3 (11725865_a_at) / Fold change /veh EBF3 (11725865_a_at) / RFU CAMK2N1 (11719241_x_at) / Fold change /veh CAMK2N1 (11719241_x_at) / RFU C5orf56 (11738088_a_at) / Fold change /veh C5orf56 (11738088_a_at) / RFU OLFML3 (11715873_a_at) / Fold change /veh OLFML3 (11715873_a_at) / RFU LOC100653217 /// NTM (11731650_a_at) / Fold change /veh LOC100653217 /// NTM (11731650_a_at) / RFU MAPK11 (11762145_a_at) / Fold change /veh MAPK11 (11762145_a_at) / RFU FIZ1 (11724087_x_at) / Fold change /veh FIZ1 (11724087_x_at) / RFU OASL (11726364_x_at) / Fold change /veh OASL (11726364_x_at) / RFU SOX15 (11748057_x_at) / Fold change /veh SOX15 (11748057_x_at) / RFU CD79A (11719716_a_at) / Fold change /veh CD79A (11719716_a_at) / RFU HIST1H1D (11736915_at) / Fold change /veh HIST1H1D (11736915_at) / RFU CASKIN2 (11723855_a_at) / Fold change /veh CASKIN2 (11723855_a_at) / RFU LOC730098 (11760151_x_at) / Fold change /veh LOC730098 (11760151_x_at) / RFU OR4N2 (11742367_at) / Fold change /veh OR4N2 (11742367_at) / RFU PRRT2 (11749266_a_at) / Fold change /veh PRRT2 (11749266_a_at) / RFU SNX32 (11753110_a_at) / Fold change /veh SNX32 (11753110_a_at) / RFU CDHR5 (11726645_a_at) / Fold change /veh CDHR5 (11726645_a_at) / RFU RCAN1 (11760418_a_at) / Fold change /veh RCAN1 (11760418_a_at) / RFU FAM167A (11723789_a_at) / Fold change /veh FAM167A (11723789_a_at) / RFU FAM26E (11764081_at) / Fold change /veh FAM26E (11764081_at) / RFU ISYNA1 (11749810_s_at) / Fold change /veh ISYNA1 (11749810_s_at) / RFU ACY1 (11761880_at) / Fold change /veh ACY1 (11761880_at) / RFU 11764098_at / Fold change /veh 11764098_at / RFU SAMD14 (11745864_x_at) / Fold change /veh SAMD14 (11745864_x_at) / RFU NPB (11741838_a_at) / Fold change /veh NPB (11741838_a_at) / RFU TMPRSS6 (11731388_a_at) / Fold change /veh TMPRSS6 (11731388_a_at) / RFU KRTAP10-2 (11738614_at) / Fold change /veh KRTAP10-2 (11738614_at) / RFU ARHGAP8 /// PRR5-ARHGAP8 (11727945_x_at) / Fold change /veh ARHGAP8 /// PRR5-ARHGAP8 (11727945_x_at) / RFU KRTAP5-7 /// NADSYN1 (11734609_at) / Fold change /veh KRTAP5-7 /// NADSYN1 (11734609_at) / RFU RASL12 (11751679_a_at) / Fold change /veh RASL12 (11751679_a_at) / RFU CDKN2B (11736163_a_at) / Fold change /veh CDKN2B (11736163_a_at) / RFU PRF1 (11729649_at) / Fold change /veh PRF1 (11729649_at) / RFU, ZNF638 /// ZNF638-IT1 / Fold change vs veh, ZNF638 /// ZNF638-IT1 / RFU, PANK3 / Fold change vs veh, PANK3 / RFU, SH3YL1 / Fold change vs veh, SH3YL1 / RFU, ZEB2 / Fold change vs veh, ZEB2 / RFU, NRIP1 / Fold change vs veh, NRIP1 / RFU, PTTG1IP / Fold change vs veh, PTTG1IP / RFU, CAPN2 / Fold change vs veh, CAPN2 / RFU, MED14 / Fold change vs veh, MED14 / RFU, SNORA58 / Fold change vs veh, SNORA58 / RFU, C1orf63 / Fold change vs veh, C1orf63 / RFU, LRRFIP1 / Fold change vs veh, LRRFIP1 / RFU, NDUFAF7 / Fold change vs veh, NDUFAF7 / RFU, SLC12A2 / Fold change vs veh, SLC12A2 / RFU, IBTK / Fold change vs veh, IBTK / RFU, ESF1 / Fold change vs veh, ESF1 / Fold change vs veh, TMEM50B / RFU, TAOK1 / Fold change vs veh, TAOK1 / RFU, ACBD3 / Fold change vs veh, ACBD3 / RFU, TMA16 / Fold change vs veh, TMA16 / RFU, RWDD3 / Fold change vs veh, RWDD3 / RFU, BCAT1 / Fold change vs veh, BCAT1 / RFU, EDEM3 / Fold change vs veh, EDEM3 / RFU, TMEM33 / Fold change vs veh, TMEM33 / RFU, WDR75 / Fold change vs veh, WDR75 / RFU, AHCTF1 / Fold change vs veh, AHCTF1 / RFU, TFRC / Fold change vs veh, TFRC / RFU, ZDHHC17 / Fold change vs veh, ZDHHC17 / RFU, NOM1 / Fold change vs veh, NOM1 / RFU, ARL8B / Fold change vs veh, ARL8B / RFU, ZBTB11 / Fold change vs veh, ZBTB11 / RFU, TAMM41 / Fold change vs veh, TAMM41 / RFU, KIAA1704 /// LOC100996395 / Fold change vs veh, KIAA1704 /// LOC100996395 / RFU, ING1 / Fold change vs veh, ING1 / RFU, TRMT61B / Fold change vs veh, TRMT61B / RFU, FUBP3 / Fold change vs veh, FUBP3 / RFU, TP53 / Fold change vs veh, TP53 / RFU, TNKS2 / Fold change vs veh, TNKS2 / RFU, ZFP14 / Fold change vs veh, ZFP14 / RFU, ACTR2 / Fold change vs veh, ACTR2 / RFU, PPP3R1 / Fold change vs veh, PPP3R1 / RFU, PIK3R1 / Fold change vs veh, PIK3R1 / RFU, HNRNPA1 / Fold change vs veh, HNRNPA1 / RFU, RNF170 / Fold change vs veh, RNF170 / RFU, ZNF28 / Fold change vs veh, ZNF28 / RFU, RNGTT / Fold change vs veh, RNGTT / RFU, OGT / Fold change vs veh, OGT / RFU, BRD1 / Fold change vs veh, BRD1 / RFU, MARS / Fold change vs veh, MARS / RFU, ZNF655 / Fold change vs veh, ZNF655 / RFU, FAHD1 / Fold change vs veh, FAHD1 / RFU, BDP1 / Fold change vs veh, BDP1 / RFU, LRRCC1 / Fold change vs veh, LRRCC1 / RFU, ARID1A / Fold change vs veh, ARID1A / RFU, ZNF146 / Fold change vs veh, ZNF146 / RFU, ZNF330 / Fold change vs veh, ZNF330 / RFU, GPN3 / Fold change vs veh, GPN3 / RFU, C9orf123 / Fold change vs veh, C9orf123 / RFU, N4BP2L2 / Fold change vs veh, N4BP2L2 / RFU, ARFIP1 / Fold change vs veh, ARFIP1 / RFU, FAM179B / Fold change vs veh, FAM179B / RFU, BCL10 / Fold change vs veh, BCL10 / RFU, UHRF1BP1L / Fold change vs veh, UHRF1BP1L / RFU, BET1 / Fold change vs veh, BET1 / RFU, CNOT2 / Fold change vs veh, CNOT2 / RFU, ZNF268 / Fold change vs veh, ZNF268 / Fold change vs veh, ZNF507 / RFU, DGCR2 / Fold change vs veh, DGCR2 / RFU, WDSUB1 / Fold change vs veh, WDSUB1 / Fold change vs veh, HSP90B1 /// MIR3652 / RFU, ADSS / Fold change vs veh, ADSS / RFU, GK / Fold change vs veh, GK / RFU, ZNF148 / Fold change vs veh, ZNF148 / RFU, TAF9 / Fold change vs veh, TAF9 / RFU, SLC1A5 / Fold change vs veh, SLC1A5 / RFU, SLMO2 / Fold change vs veh, SLMO2 / RFU, ABCC4 / Fold change vs veh, ABCC4 / RFU, LOC101060439 /// RAP1B / Fold change vs veh, LOC101060439 /// RAP1B / RFU, RFX7 / Fold change vs veh, RFX7 / RFU, GTPBP10 / Fold change vs veh, GTPBP10 / RFU, CNEP1R1 / Fold change vs veh, CNEP1R1 / RFU, BIVM-ERCC5 /// ERCC5 / Fold change vs veh, BIVM-ERCC5 /// ERCC5 / RFU, ILF3 / Fold change vs veh, ILF3 / RFU 11762660_at / Fold change /veh 11762660_at / RFU VCAN (11757783_s_at) / Fold change /veh VCAN (11757783_s_at) / RFU DDX43 (11728927_at) / Fold change /veh DDX43 (11728927_at) / RFU KRT8 (11758188_x_at) / Fold change /veh KRT8 (11758188_x_at) / RFU NKD1 (11759106_at) / Fold change /veh NKD1 (11759106_at) / RFU SRD5A1 (11742802_a_at) / Fold change /veh SRD5A1 (11742802_a_at) / RFU TPSAB1 /// TPSB2 (11721975_s_at) / Fold change /veh TPSAB1 /// TPSB2 (11721975_s_at) / RFU GSTM3 (11746129_a_at) / Fold change /veh GSTM3 (11746129_a_at) / RFU IL23R (11737362_x_at) / Fold change /veh IL23R (11737362_x_at) / RFU TMEM51 (11727254_a_at) / Fold change /veh TMEM51 (11727254_a_at) / RFU PIWIL2 (11732686_x_at) / Fold change /veh PIWIL2 (11732686_x_at) / RFU ORM1 (11744905_x_at) / Fold change /veh ORM1 (11744905_x_at) / RFU CCDC152 (11743942_at) / Fold change /veh CCDC152 (11743942_at) / RFU ECM1 (11717891_a_at) / Fold change /veh ECM1 (11717891_a_at) / RFU IL23R (11748794_a_at) / Fold change /veh IL23R (11748794_a_at) / RFU TNFAIP8L3 (11732012_x_at) / Fold change /veh TNFAIP8L3 (11732012_x_at) / RFU MBOAT4 (11741988_at) / Fold change /veh MBOAT4 (11741988_at) / RFU 11764193_at / Fold change /veh 11764193_at / RFU TMEM53 (11763286_at) / Fold change /veh TMEM53 (11763286_at) / RFU MAGEB2 (11727129_at) / Fold change /veh MAGEB2 (11727129_at) / RFU TMEM200A (11744735_a_at) / Fold change /veh TMEM200A (11744735_a_at) / RFU CCDC152 (11751479_a_at) / Fold change /veh CCDC152 (11751479_a_at) / RFU FAM211A (11726209_a_at) / Fold change /veh FAM211A (11726209_a_at) / RFU RGS16 (11746705_a_at) / Fold change /veh RGS16 (11746705_a_at) / RFU VCAN (11755009_s_at) / Fold change /veh VCAN (11755009_s_at) / RFU RHOB (11743442_s_at) / Fold change /veh RHOB (11743442_s_at) / RFU RGS16 (11720943_a_at) / Fold change /veh RGS16 (11720943_a_at) / RFU RGS16 (11720944_at) / Fold change /veh RGS16 (11720944_at) / RFU, VPS4B / Fold change vs veh, VPS4B / RFU, CREB1 / Fold change vs veh, CREB1 / RFU, DNAJC13 / Fold change vs veh, DNAJC13 / RFU, GNAQ / Fold change vs veh, GNAQ / RFU, CDK5R1 / Fold change vs veh, CDK5R1 / RFU, ZRANB3 / Fold change vs veh, ZRANB3 / RFU, CUL4A / Fold change vs veh, CUL4A / RFU, CCNY / Fold change vs veh, CCNY / RFU, UFL1 / Fold change vs veh, UFL1 / RFU, COG3 / Fold change vs veh, COG3 / RFU, DIAPH2 / Fold change vs veh, DIAPH2 / RFU, SKA2 / Fold change vs veh, SKA2 / RFU, AFF3 / Fold change vs veh, AFF3 / RFU, LMF1 / Fold change vs veh, LMF1 / RFU, IPO11 / Fold change vs veh, IPO11 / RFU, DFFB / Fold change vs veh, DFFB / RFU, FOXP1 / Fold change vs veh, FOXP1 / RFU, CARD8 / Fold change vs veh, CARD8 / RFU, STRN3 / Fold change vs veh, STRN3 / RFU, ADK / Fold change vs veh, ADK / RFU, RASSF2 / Fold change vs veh, RASSF2 / RFU, WIPF1 / Fold change vs veh, WIPF1 / RFU, LARP1B / Fold change vs veh, LARP1B / RFU, RASA1 / Fold change vs veh, RASA1 / RFU, RB1 / Fold change vs veh, RB1 / RFU, PPFIA1 / Fold change vs veh, PPFIA1 / RFU, MAT2A / Fold change vs veh, MAT2A / RFU, CCT5 / Fold change vs veh, CCT5 / RFU, WDR92 / Fold change vs veh, WDR92 / RFU, CUX1 / Fold change vs veh, CUX1 / RFU, TTC7A / Fold change vs veh, TTC7A / RFU, TMEM135 / Fold change vs veh, TMEM135 / RFU, DEPTOR / Fold change vs veh, DEPTOR / RFU, CPM / Fold change vs veh, CPM / RFU, DNAJB6 / Fold change vs veh, DNAJB6 / RFU, CACNA2D3 / Fold change vs veh, CACNA2D3 / RFU, DTX4 / Fold change vs veh, DTX4 / RFU, TFCP2 / Fold change vs veh, TFCP2 / RFU, GMCL1 /// GMCL1P1 / Fold change vs veh, GMCL1 /// GMCL1P1 / RFU, AEBP2 / Fold change vs veh, AEBP2 / RFU, SNHG1 /// SNORD22 /// SNORD25 /// SNORD26 /// SNORD27 /// SNORD28 /// SNORD29 /// SNORD31 / Fold change vs veh, SNHG1 /// SNORD22 /// SNORD25 /// SNORD26 /// SNORD27 /// SNORD28 /// SNORD29 /// SNORD31 / Fold change (Aza/veh), C12orf56 (ProbeSet 11735607_a_at) / Fold change (ACY-1035/veh), C12orf56 (ProbeSet 11735607_a_at) / Fold change (Aza/veh), FGFR1OP (ProbeSet 11751329_s_at) / Fold change (ACY-1035/veh), FGFR1OP (ProbeSet 11751329_s_at) / Fold change (Aza/veh), VPS36 (ProbeSet 11739960_a_at) / Fold change (ACY-1035/veh), VPS36 (ProbeSet 11739960_a_at) / RFU SYPL1 (11715823_x_at) / Fold change /veh SYPL1 (11715823_x_at) / RFU IGFBP7 (11715501_s_at) / Fold change /veh IGFBP7 (11715501_s_at) / RFU REEP3 (11722064_at) / Fold change /veh REEP3 (11722064_at) / RFU IGLL1 (11728026_x_at) / Fold change /veh IGLL1 (11728026_x_at): dose or concentration left out as unconfirmed", "conditions": "ProbeSet 11731461_x_at; LIST D"}
{"smiles": "Nc1ccc(-c2cccs2)cc1NC(=O)c1ccc2c(c1)cc(C1CC1)n2CCN1CCOCC1", "note": "[ACY-1035]", "values": [{"measurement": "Fold change vs veh, CPM", "result": 0.83}]}
